According to patent publication US5817674A, “Quinoline compounds” (Roussel Uclaf, priority 1991, dated 1998):

Experiments:
endotheline receptor = target: T1, endotheline receptor (Rattus norvegicus, UniProt P21451); experiment: activity on the endotheline receptor (rat posterior cortex plus cerebellum membranes, 125I Endotheline); format: binding; conditions: pH 7.4, 25° C., 60 minutes, read-out: IC50 (displacement by 50% of the specific radioactivity fixed to the receptor)
T1 construct: prepared from rat's posteror cortex plus cerebellum; from tissue; host or cells: rat posterior cortex plus cerebellum membranes
T1 sequence (P21451 27-442): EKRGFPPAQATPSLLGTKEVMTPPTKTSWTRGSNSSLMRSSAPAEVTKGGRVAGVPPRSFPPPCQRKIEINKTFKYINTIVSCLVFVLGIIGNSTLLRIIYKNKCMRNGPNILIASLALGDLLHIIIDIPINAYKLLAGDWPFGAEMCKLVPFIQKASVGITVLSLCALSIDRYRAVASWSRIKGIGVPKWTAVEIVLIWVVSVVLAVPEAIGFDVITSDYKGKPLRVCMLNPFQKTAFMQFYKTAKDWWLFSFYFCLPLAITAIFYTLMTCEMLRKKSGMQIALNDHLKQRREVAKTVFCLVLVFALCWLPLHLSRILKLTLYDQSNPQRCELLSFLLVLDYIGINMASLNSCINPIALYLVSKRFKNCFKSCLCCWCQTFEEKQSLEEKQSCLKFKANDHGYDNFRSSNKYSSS
Description: 3) Study of the activity on the endotheline receptor
A membrane preparaton was prepared from rat's posteror cortex plus cerebellum. The tissue was ground up in a POLYTRON in a Tris buffer 50 mM pH=7.4. After 30 minutes at 25° C. (W.B.), the homogenate was centrifuged at 30,000 g for 15 minutes (2 centrifugings with intermediate taking up in the Tris buffer pH 7.4). The deposits were suspended in an incubation buffer (Tris 25 mM, pepsteatine 5 microg/ml, aprotinine 3 microg/ml. PMSF 0.1 mM, EDTA 3 mM, EGTA 1 mM pH 7.4). 2 ml aliquots were distributed in hemolysis tubes and 125I Endotheline (about 50,000 dpm/tube) and the product to be studied were added. The product was first tested at 3×10^-5 M in triplicate. When the tested product displaced by more than 50% the radioactivity linked specifically to the receptor, it was tested again in a range of 7 concentrations to determine the concentration that inhibited the radioactivity linked specifically to the receptor by 50%. In this way, the 50% inhibiting concentration was determined.
The non-specific bond was determined by the addition of endotheline at 10^-6 M (in triplicate). The aliquot was incubated at 25° C. for 60 minutes, put in a water bath at 0° C. for 5 minutes, filtered under reduced pressure, rinsed with Tris buffer 7.4 pH and the radioactivity was counted in the presence of scintillating Triton. […]

[1] = test system: vasoconstrictive effect of endotheline; experiment: antagonistic activity of the vasoconstrictive effect of endotheline in a demedullated rat; format: in vivo; conditions: 1 mg/kg (IV), 10 minutes before endotheline 1-3-10-30 μg/kg IV; anaesthetized demedullated Sprague Dawley rats
Description: 4) Investigation of an antagonistic activity of the vasoconstrictive effect of endotheline in a demedullated rat
The vasoconstriction caused by injections (IV) of cumulative doses of endotheline (1-3-10-30 μg/kg) was measured by the increase of average arterial pressure in a control group of rats (Sprague Dawley), anaesthetized, then demedullated.

angiotensin II receptor = target: T2, angiotensin II receptor (Rattus norvegicus, UniProt P25095); experiment: Test on the angiotensin II receptor (rat liver membranes, 125I angiotensin II); format: binding; conditions: pH 7.4, 25° C., 150 minutes, read-out: IC50 (displacement of 50% of the specific radioactivity fixed on the receptor)
T2 construct: A fresh membrane preparation obtained from the liver of a rat was used; from tissue; host or cells: rat liver membranes
T2 sequence (P25095 1-359): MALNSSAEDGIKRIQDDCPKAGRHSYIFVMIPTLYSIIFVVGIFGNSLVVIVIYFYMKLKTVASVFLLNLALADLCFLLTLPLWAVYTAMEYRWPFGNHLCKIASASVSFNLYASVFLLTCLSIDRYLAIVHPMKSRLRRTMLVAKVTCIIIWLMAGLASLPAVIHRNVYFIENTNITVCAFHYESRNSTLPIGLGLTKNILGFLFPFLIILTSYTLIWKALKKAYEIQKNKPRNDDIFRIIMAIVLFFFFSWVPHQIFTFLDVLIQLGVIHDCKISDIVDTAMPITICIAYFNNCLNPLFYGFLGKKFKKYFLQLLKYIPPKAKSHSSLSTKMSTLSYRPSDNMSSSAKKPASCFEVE
Description: 1) Test on the angiotensin II receptor
A fresh membrane preparation obtained from the liver of a rat was used. The tissue was ground up in a polytron in a Tris 50 mM pH 7.4 buffer and after being ground up, the tissue was centrifuged 3 times at 30,000 g for 15 mintues with intermediate taking up of the deposits in the Tris pH 7.4 buffer. The last deposits were suspended in a pH 7.4 incubation buffer (Tris 20 mM, NaCl 135 mM, KCl 10 mM, glucose 5 mM, MgCl2 10 mM, benzyl sulfonyl fluoride 0.3 mM, bacitracin 0.1 mM, (0.2% bovine albumin serum). 2 ml aliquoted fractions were divided into hemolysis tubes and 125I angiotensin II (25,000 DPM/tube) and the product to be studied were added. The product was first tested at 3×10^-5 M in triplicate. When the test product displaced more than 50% of the radioactivity linked specifically to the receptor, it was tested again in a range of 7 concentrations to determine the concentration that inhibited the radioactivity linked specifically to the receptor by 50%. In this way, the 50% inhibiting concentration was determined.
The non-specific bond was determined by the addition of the product of Example 94 of the European Patent No. 0,253,310 at 10^-5 M (in triplicate). […]

[2] = test system: angiotensin II on the isolated portal vein; experiment: antagonistic activity of angiotensin II on the isolated portal vein; parameters: species or system male Wistar rats; conditions: rat isolated portal vein; angiotensin II 3.10^-8 M; compound 15 minutes before stimulation; 37° C.; verapamil 1.10^-6 M; read-out: IC50 (concentration that produced a 50% inhibition of the response to angiotensin)
Description: The portal vein was removed from male Wistar rats weighing about 350 g (IFFA Credo France) after cervical dislocation. It was put rapidly into a physiological solution (see below) at ambient temperature and a ring of about 1 mm was mounted in a bath with an isolated element containing 20 ml of the following physiological solution (composition in mM: NaCl 118.3-KCl 4.7-MgSO4 1.2-KH2 PO4 1.2-NaHCO3 25-glucose 11.1-CaCl2 2.5). The medium was held at 37° C. and oxygenated by a mixture of O2 95%, CO2 5%. The initial pressure imposed was 1 g and the rings were left at rest for 60 to 90 minutes. To avoid spontaneous contractions, verapamil was added to the incubation bath (1.10^-6 M).
At the end of rest period, angiotensin II (Ciba hypertensin) 3.10^-8 M was added to the incubation bath and left in contact with the preparation for one minute. This operation was repeated every 30 minutes with the tissue being washed 3 or 4 times between two stimulations with angiotensin. The compound to be studied was introduced into the bath 15 minutes before a new stimulation with angiotensin. As increasing concentrations of this molecule were used, an IC50 (concentration that produced a 50% inhibition of the response to angiotensin) was calculated, expressed in nanomoles.

| Compound | IC50 (endotheline receptor) | antagonistic effect: decrease in response to endotheline (average arterial pressure) [1] | IC50 (angiotensin II receptor) | IC50 [2] |
| --- | --- | --- | --- | --- |
| CC(C)Cc1cc(OCc2ccc(-c3ccccc3C(=O)O)cc2)c2cccc(C(F)(F)F)c2n1 [Example 35, 4'-(((2-(2-methylproyl)-8-(trifluoromethyl)-4-quinolinyl)-oxy)-methyl)(1,1'-biphenyl)-2-carboxylic acid] | 14000 nM | antagonistic effect | – | – |
| CCCCc1cc(Cc2ccc(-c3ccccc3C(=O)O)cc2)c2ccccc2n1 [Example 4, 4'-[(2-butyl-4-quinolinyl)-methyl](1,1'-biphenyl)-2-carboxylic acid] | – | – | 540 nM | 131 nM |
